Some test systems named below: NCI-H23; HL-60; SK-OV-3; EKVX; UACC-62; TK-10; SK-MEL-2; COLO 205; SW-620; RXF 393; NCI-H460; NCI-H522; K562; SNB-75; SK-MEL-28; HCT-116.
Holding throughout (assay): growth of human tumour cells (NCI), 48 h

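Protocol summary: plate cells (96-well), add compound at 5 concentrations, incubate 48 h, interpolate endpoints linearly. GI50: concentration for 50% inhibition of growth.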 Calls of active or inactive are those of the source. No stated cut-off is given here; in the data, active = GI50 up to about 1.1 µM and inactive = higher. A value given as a limit tells only on which side of the number the result lay.

`Clc1ccc(C[P+]2(c3ccccc3)CCCCC2)cc1.[O-][Cl+3]([O-])([O-])[O-]`: the GI50 in the test with NCI-H23 is 85.5 µM (inactive); in the test on HL-60 it was 24.4 µM (inactive); in the test with SK-OV-3, > 100 µM (inactive); in the test with EKVX it was > 100 µM (inactive); with UACC-62, 37.2 µM (inactive); in the test on TK-10, 77.8 µM (inactive). For the same molecule, the GI50 in the test with SK-MEL-2 was 48.6 µM (inactive); in the test on COLO 205, 17.9 µM (inactive); with SW-620, 80 µM (inactive); in the test on RXF 393, > 100 µM (inactive); in the test on NCI-H460, > 100 µM (inactive); in the test on NCI-H522, 28.8 µM (inactive). Further, the GI50 in the test with K562 is 78.2 µM (inactive); with SNB-75, 37.1 µM (inactive); in the test on SK-MEL-28, 62.8 µM (inactive); in the test with HCT-116 it was 60.1 µM (inactive).

On to `CC1=C(C(=O)Nc2cc(=O)n(C)c(=O)n2C)C(c2ccc([N+](=O)[O-])cc2)C(C(=O)Nc2cc(=O)n(C)c(=O)n2C)=C(C)N1`, for which the GI50 in the test on NCI-H23 is > 100 µM (inactive); in the test on HL-60 it was > 100 µM (inactive); in the test with SK-OV-3, 32.3 µM (inactive); in the test on EKVX, > 100 µM (inactive); with UACC-62, 26.5 µM (inactive); in the test with TK-10, > 100 µM (inactive). Moreover, the GI50 in the test with SK-MEL-2 is > 100 µM (inactive); in the test with COLO 205, > 100 µM (inactive); in the test on SW-620, > 100 µM (inactive); with RXF 393, > 100 µM (inactive); in the test on NCI-H460, > 100 µM (inactive); with NCI-H522, 37.1 µM (inactive). Besides, the GI50 in the test on K562 is 75.5 µM (inactive); in the test with SNB-75 it was 42 µM (inactive); in the test on SK-MEL-28 it was > 100 µM (inactive); in the test with HCT-116 it was 74.3 µM (inactive).

Turning to `COc1cc2c(c(OC(C)=O)c1OC(C)=O)-c1ccc(SC)c(=O)cc1C(NC(C)=O)CC2` (stereo not given), the GI50 was 1.92 µM (inactive) in the test on NCI-H23; 0.375 µM (active) in the test on HL-60; > 19.5 µM (inactive) in the test with SK-OV-3; 32.1 µM (inactive) with EKVX; 1.12 µM (inactive) in the test with UACC-62; 28.7 µM (inactive) with TK-10. For the same molecule, the GI50 in the test with SK-MEL-2 was 0.565 µM (active); in the test on COLO 205 it was 0.998 µM (active); in the test with SW-620, 0.951 µM (active); in the test on RXF 393, 8.91 µM (inactive); in the test with NCI-H460, 3.15 µM (inactive); in the test on NCI-H522, 0.379 µM (active). Also, the GI50 in the test with K562 was 0.483 µM (active); in the test with SNB-75 it was 0.255 µM (active); with SK-MEL-28, 3.24 µM (inactive); in the test with HCT-116, 1.36 µM (inactive).

For `CCN(CC)C(=O)c1c(N2CCOCC2)cc(N(CC)CC)oc1=O`, the GI50 with NCI-H23, in the test with HL-60, with SK-OV-3, in the test on EKVX, with UACC-62 and with TK-10 was > 100 µM (inactive) throughout. The GI50 in the test on SK-MEL-2, in the test on COLO 205, with SW-620, in the test on RXF 393, in the test with NCI-H460 and in the test on NCI-H522 was > 100 µM (inactive) each time. Also, the GI50 in the test on K562, with SNB-75, in the test on SK-MEL-28 and in the test with HCT-116 was > 100 µM (inactive) in each case.

For the molecule `COC(=O)NN=C1C(C)(C)C(=NNC(=O)OC)C1(C)C`, the GI50 was > 48.9 µM (inactive) with NCI-H23; > 100 µM (inactive) in the test on HL-60; > 100 µM (inactive) in the test with SK-OV-3; > 100 µM (inactive) in the test with EKVX; > 100 µM (inactive) in the test on UACC-62; > 100 µM (inactive) in the test on TK-10. Also, the GI50 was > 100 µM (inactive) with SK-MEL-2; > 41.6 µM (inactive) in the test with COLO 205; > 100 µM (inactive) in the test on SW-620; > 100 µM (inactive) with RXF 393; > 100 µM (inactive) with NCI-H460; > 61.4 µM (inactive) with NCI-H522. In addition, the GI50 is > 100 µM (inactive) with K562, > 100 µM (inactive) in the test with SNB-75, > 100 µM (inactive) with SK-MEL-28 and > 45.5 µM (inactive) in the test with HCT-116.

The values above are taken from ChEMBL document CHEMBL1201862, “PubChem BioAssay data set” (2004).
